Experiments:
rat osteocalcin promoter = experiment: OCN (osteocalcin) promoter assay; type: cell-based; conditions: RG-15 (ROS 17/2.8) cells, 48 hr treatment, luciferase
Protocol: 3. The OCN (Osteocalcin) Promoter Assay
The OCN Promoter Assay is an indicator and marker for osteoporosis. Desired assay results are EC50 less than or equal to […]. Preferred assay results are less than […].
(3) Materials and Method for the OCN Promoter Assay:
The activation of osteocalcin by VDR ligands was evaluated in a rat osteoblast-like cell line RG-15 (ROS 17/2.8) stably expressing rat osteocalcin promoter fused with luciferase reporter gene. The stable cell lines were established as reported before (Activation of Osteocalcin Transcription involves interaction of protein kinase A- and Protein kinase C-dependent pathways. Boguslawski, G., Hale, L. V., Yu, X.-P., Miles, R. R., Onyia, J. E., Santerre R. F., Chandrasekhar, S. J. Biol. Chem. 275, 999-1006, 2000). Confluent RG-15 cells maintained in DMEM/F-12 medium (3:1) containing 5% FBS, 300 µg/ml G418 and at 37° C. under 5% CO2/95% air atmosphere were trypsinized (0.25% trypsin) and plated into white opaque 96-well cell culture plates (25000 cells/well). After 24 hr, cells (in DMEM/F-12 medium+2% FBS) were treated with various concentrations of compounds, dissolved in DMSO. The final DMSO concentration remained at 0.01% (v/v). After 48 hr treatment, the medium was removed, cells were lysed with 50 µl of lysis buffer (From Luciferase reporter assay system, Roche Diagnostics, Indianapolis, Ind.) and assayed for luciferase activity using the Luciferase Reporter Gene Assay kit from Boehringer Mannheim as per manufacturer's specifications.

KERtr cells = experiment: Keratinocyte proliferation assay; type: cell-based; conditions: Homo sapiens, 72 hr, BrdU incorporation, read-out: Kera. Prolif. IC50
Protocol: 5. The Keratinocyte Proliferation Assay
This Assay is indicative for the treatment of psoriasis.
(5) The Keratinocyte Proliferation Assay:
KERtr cells (Human skin keratinocyte transformed with a retrovirus vector, obtained from ATCC) were plated in 96-well flat-bottomed plates (3000 cells/well) in 100 µl keratinocyte serum free medium supplemented with bovine pituitary extract in the absence of EGF (Life Technologies, Rockville, Md.) and incubated at 37° C. for two days. The cells were treated with various concentrations of VDR ligands (ten-fold serial dilution from 10,000 nM to 0.1 nM in triplicate), dissolved in 100 µl keratinocyte serum free medium supplemented with bovine pituitary extract in the absence of EGF and incubated at 37° C. for 72 hr. BrdU (5-bromo-2′-deoxyuridine) incorporation was analyzed as a measure of DNA replication (Cell proliferation ELISA kit, Roche Diagnostics, Indianapolis, Ind.) and absorbance was measured at 405 nm. Potency values (IC50) values were determined as the concentration (nM) of compound that elicited a half-maximal response.

[1] = Mouse hypercalcemia assay; type: in vivo; conditions: female DBF mice, oral gavage for 6 days, serum ionized calcium 6 hours after last dosing
From the text: 4. The Mouse Hypercalcemia Assay
(4) Materials and Method for the Mouse Hypercalcemia Assay: […]

[2] = system: IL-10 production in PBMCs; experiment: Human IL-10 induction assay; type: cell-based; conditions: PBMC; TPA/PHA treated human PBMCs, IL-10 in supernatant by immunoassay
From the text: 6. The IL-10 Induction Assay
This is an in vitro efficacy assay for psoriasis, abscess and adhesion. Psoriasis involves both keratinocytes and immune cells. IL-10 is a unique cytokine because it is anti-inflammatory and immunosuppressive. This assay tells us whether a VDRM is able to function as an agonist in PBMCs (primary blood mononuclear cells) or not. A lower EC50 value is desirable in this assay since a compound with a lower EC50 value will be a better agonist in PBMCs. […] 7. Other Compound Assay Standards An alternative measure of the efficacy of compounds of the invention for treatment of osteoporosis is a numerical ratio calculated as follows: • Dose Threshold needed to induce hypercalcemia • divided by • Dose Threshold needed for bone efficacy An alternative measure of the efficacy of compounds of the invention for treatment of psoriasis is a numerical ratio calculated as follows: • Dose Threshold needed to induce hypercalcemia • divided by • Dose Threshold needed to induce keratinocyte proliferation For the above ratios, Dose Thresholds are determined from dose response curve data. 8. The CaT1 (Calcium Transport Protein 1) Assay The CaT1 Assay is an indicator for the undesirable condition of hypercalcemia. The higher the EC50 values for a compound the less calcemic it will be in vivo. […] Preferred assay results are greater than 1000 nM. Details of the Assay Methods: (1) Materials and Method for RXR-VDR Heterodimerization Assay: Transfection Method:
(6) Materials and Method for Human IL-10 Induction Assay:
Isolation of peripheral blood mononuclear cells (PBMCs): • A. Collect 50 ml of human blood and dilute with media, RPMI-1640. • B. Prepare sterile tubes with ficol. • C. Add diluted blood to tubes. • D. Centrifuge. • E. Discard the top layer and collect the cells from middle layer. • F. Divide all cells into four tubes and add media. • G. Centrifuge. • H. Aspirate off media and resuspend. • I. Collect all cells • J. Centrifuge. at 1200 rpm for 10 minutes. • K. Resuspend in RPMI-1640 with 2% FBS and count cells
Stimulation of PBMC: • L. Prepare TPA in DMSO. • M. Dissolve PHA in water. • N. Plate TPA/PHA treated PBMCs in well plates. • O. Incubate.
Treatment: • P. Prepare all compound dilutions in plain RPMI-1640 media. • Q. Add diluted compound. • R. Incubate.
Sample Collection and Assay: • S. Remove all the cells by centrifugation and assay the supernatant for IL-10 by immunoassay. • 1) T. Perform IL-10 assay using anti-human IL-10 antibody coated beads, as described by the manufacturer (Linco Research Inc., St. Charles, Mo.).

VDR (pGal4-VDR-LBD) = biological target: T1, VDR (pGal4-VDR-LBD) (Homo sapiens, UniProt P11473); experiment: VDR CTF (Caco-2 cell co-transfection assay); type: cell-based; conditions: Caco-2 cells, Gal4-responsive reporter pFRLuc; surrogate for calcemic activity
T1 construct: the receptor expression vector pGal4-VDR-LBD (10 ng); expressed in transfected cells; host or cells: Caco-2 cells
T1 sequence (P11473 127-423 limits assumed): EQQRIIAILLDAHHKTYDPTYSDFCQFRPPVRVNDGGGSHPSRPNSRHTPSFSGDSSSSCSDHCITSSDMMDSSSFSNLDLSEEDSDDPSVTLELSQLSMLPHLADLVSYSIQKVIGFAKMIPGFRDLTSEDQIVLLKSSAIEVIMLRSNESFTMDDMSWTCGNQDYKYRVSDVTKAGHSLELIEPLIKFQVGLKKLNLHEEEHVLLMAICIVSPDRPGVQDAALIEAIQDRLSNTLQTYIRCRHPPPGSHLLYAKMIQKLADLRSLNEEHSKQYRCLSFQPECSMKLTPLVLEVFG
Protocol: 2. The Caco-2 Cell Co-Transfection Assay:
The Caco-2 cell assay is an indicator for the undesirable condition of hypercalcemia. This co-transfection assay is a surrogate assay for in vivo calcemic activity of VDR ligands. […] Preferred assay results are greater than 1000 nM.
(2) Materials and Method for the Caco-2 Cell Assay:
Caco-2 cells, grown in phenol red free, DMEM (Invitrogen, Carlsbad, Calif.) containing 10% charcoal-stripped FCS (Hyclone, Logan, Utah), were transfected with Fugene 6 reagent (Roche Diagnostics, Indianapolis, Ind.). Cells (5000/well) were plated 18 h before transfection in a 96 well plate. The Cells were transfected with Gal4-responsive reporter pFRLuc (150 ng, Stratagene, La Jolla Calif.) and the receptor expression vector pGal4-VDR-LBD (10 ng), along with Fugene 6 reagent (0.2 μl/well). The DNA-Fugene complex was formed by incubating the mixture for 30 min at room temperature. The cells were transfected in triplicate for 5 h, and treated with various concentrations of VDR ligands (form 0.01 nM to 10,000 nM concentration range) 18 h post-transfection. The luciferase activity was quantified using Steady-Glo reagent kit (Promega, Madison, Wis.) as per manufacturer's specifications.

Row | SMILES | EC50 (rat osteocalcin promoter; Rattus norvegicus, 48 h) | IC50 (KERtr cells) | Mouse Hypercal [1] | IC50 [2] | EC50 (rat osteocalcin promoter) | EC50 (VDR (pGal4-VDR-LBD))
1 | CCC(CC)(c1ccc(OCC(O)CO)c(C)c1)c1ccc(OCC(O)C(C)(C)C)c(C)c1 (stereo not drawn) [BB, 3-(4-{1-Ethyl-1-[4-(2-hydroxy-3,3-dimethyl-butoxy)-3-methyl-phenyl]-propyl}-2-methyl-phenoxy)-propane-1,2-diol, reference compound] | 8.24 nM | 10 nM | 20 µg/kg/day | 28 nM | – | –
2 | C=C1/C(=C\C=C2/CCC[C@]3(C)[C@@H]([C@H](C)/C=C/[C@@H](O)C4CC4)CC[C@@H]23)C[C@@H](O)C[C@@H]1O [FF, calcipotriol, reference compound] | – | 103 nM | – | 0.5 nM | – | –
3 | CCC(CC)(c1ccc(OCC(=O)C(C)(C)C)c(C)c1)c1ccc(OCC(=O)C(C)(C)C)c(C)c1 [DD, reference compound] | 31.1 nM | 1060 nM | 1000 µg/kg/day | – | – | –
4 | C=C1/C(=C\C=C2/CCC[C@]3(C)[C@@H]([C@H](C)CCCC(C)(C)O)CC[C@@H]23)C[C@@H](O)C[C@@H]1O [AA, 1α,25-dihydroxyvitamin D3, reference compound] | – | – | 0.06 µg/kg/day | – | – | –
5 | CCC(O)(C#Cc1ccc(C(CC)(CC)c2ccc(C(=O)NC(C)(C)C(=O)O)c(C)c2)cc1C)CC [Ex. 2, 2-(4-{1-Ethyl-1-[4-(3-ethyl-3-hydroxy-pent-1-ynyl)-3-methyl-phenyl]-propyl}-2-methyl-benzoylamino)-2-methyl-propionic acid] | 1.2 nM | 21 nM | 300 µg/kg/day | 24 nM | 1.7 nM | 397 nM
6 | CCC(CC)(c1ccc(OCC(=O)C(C)(C)C)c(C)c1)c1ccc(OC[C@H](O)C(C)(C)C)c(C)c1 [EE, reference compound] | 341 nM | – | 1000 µg/kg/day | – | – | –
